The values below come from ChEMBL document CHEMBL1201862, “PubChem BioAssay data set” (2004).

The structures appear in SMILES notation.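 Assay format: 96-well plates, 48-hour exposure. GI50 marks 50% less growth.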 Active and inactive are the calls of the source. No stated cut-off is given here; in the data, active = GI50 up to about 1.1 µM and inactive = higher.

Among the test systems are 786-0; DU-145; HCC 2998; HL-60; IGROV-1; LOX IMVI; MDA-MB-435; MOLT-4; Malme-3M; NCI-H23; NCI/ADR-RES; OVCAR-5; RPMI-8226; SF-295; T47D; U-251; UACC-62; UO-31; M14.
What all share (experiment): growth of human tumour cells (NCI), 48 h

As for `C/C(=N\NC(=S)Nc1ccc(C)cc1)c1nc2cccnc2[nH]1`, the GI50 was 1.6 µM (inactive) in the experiment on 786-0; 2.59 µM (inactive) with DU-145; 5.47 µM (inactive) in the experiment on HCC 2998; 2.22 µM (inactive) in the experiment on HL-60; 2.31 µM (inactive) with IGROV-1; 1.41 µM (inactive) in the experiment on LOX IMVI. For the same compound, the GI50 in the experiment with MDA-MB-435 was 2.94 µM (inactive); in the experiment on MOLT-4, 1.27 µM (inactive); in the experiment with Malme-3M, 4.86 µM (inactive); with NCI-H23, 2.65 µM (inactive); in the experiment on NCI/ADR-RES it was 4.04 µM (inactive); with OVCAR-5 it was 1.95 µM (inactive). Besides, the GI50 with RPMI-8226 is 3.01 µM (inactive); with SF-295, 3.07 µM (inactive); in the experiment on T47D, 0.406 µM (active); in the experiment with U-251 it was 1.45 µM (inactive); in the experiment with UACC-62, 2.81 µM (inactive); with UO-31, 0.649 µM (active).

Take `Cc1ccc(S(=O)(=O)C2=Cc3ccccc3C2(O)c2ccccc2)cc1` (stereo not drawn): the GI50 in the experiment on 786-0 was > 10 µM (inactive); in the experiment with DU-145, 34.8 µM (inactive); in the experiment on HCC 2998, 10.4 µM (inactive); with HL-60, 13.2 µM (inactive); in the experiment with IGROV-1, 47.1 µM (inactive); in the experiment with LOX IMVI, 17.6 µM (inactive). The GI50 in the experiment with M14 was 13.5 µM (inactive); in the experiment with MDA-MB-435, 30.8 µM (inactive); in the experiment with MOLT-4, 29.2 µM (inactive); in the experiment with NCI-H23 it was 37.2 µM (inactive); in the experiment on NCI/ADR-RES, 25.5 µM (inactive); in the experiment with OVCAR-5, 60.4 µM (inactive). Moreover, the GI50 in the experiment with RPMI-8226 is 15.8 µM (inactive); in the experiment with SF-295 it was 25.4 µM (inactive); in the experiment on T47D it was 34.3 µM (inactive); in the experiment on U-251, 26.7 µM (inactive).

Regarding `O=C(OCC1CCCN2CCCCC12)c1cccnc1` (stereo not drawn), the GI50 with 786-0, in the experiment with DU-145, in the experiment on HCC 2998, with HL-60, with LOX IMVI and in the experiment with MDA-MB-435 was > 100 µM (inactive) throughout. Moreover, the GI50 with MOLT-4, in the experiment on Malme-3M, with NCI-H23, in the experiment on NCI/ADR-RES, in the experiment with RPMI-8226 and with SF-295 was > 100 µM (inactive) in each case. Further, the GI50 in the experiment with T47D, in the experiment with U-251, in the experiment on UACC-62 and in the experiment with UO-31 was > 100 µM (inactive) each time.

Regarding `Clc1ccccc1/C=C/c1ccnc2ccccc12`, the GI50 in the experiment with 786-0 was 15.8 µM (inactive); with DU-145, 15.7 µM (inactive); in the experiment on HCC 2998, 18.2 µM (inactive); in the experiment with HL-60, 19.8 µM (inactive); with IGROV-1, 15.8 µM (inactive); with LOX IMVI, 18.4 µM (inactive). Besides, the GI50 is 17.3 µM (inactive) with M14; 15.8 µM (inactive) in the experiment on MDA-MB-435; 19.5 µM (inactive) in the experiment with Malme-3M; 14.1 µM (inactive) in the experiment with NCI-H23; 15.2 µM (inactive) with NCI/ADR-RES; 19.9 µM (inactive) in the experiment with OVCAR-5. The GI50 with RPMI-8226 was 7.8 µM (inactive); with SF-295, 15.7 µM (inactive); in the experiment on T47D it was 13.6 µM (inactive); with U-251, 16.8 µM (inactive); in the experiment on UACC-62 it was 15.2 µM (inactive); in the experiment on UO-31, 17.3 µM (inactive).

As for `C(#CP(c1ccccc1)c1ccccc1)P(C#CP(c1ccccc1)c1ccccc1)c1ccccc1`, the GI50 is > 100 µM (inactive) with 786-0; > 100 µM (inactive) in the experiment with DU-145; > 100 µM (inactive) with HCC 2998; > 100 µM (inactive) in the experiment with HL-60; > 100 µM (inactive) in the experiment with IGROV-1; 0.798 µM (active) in the experiment on M14. Besides, the GI50 with MDA-MB-435 was > 100 µM (inactive); in the experiment on MOLT-4, > 100 µM (inactive); in the experiment with Malme-3M, > 100 µM (inactive); with NCI/ADR-RES, > 100 µM (inactive); in the experiment with OVCAR-5, 1.63 µM (inactive); in the experiment on RPMI-8226 it was > 100 µM (inactive). The GI50 was 5.9 µM (inactive) in the experiment with SF-295; > 100 µM (inactive) with T47D; > 100 µM (inactive) in the experiment with U-251; > 100 µM (inactive) with UACC-62; > 100 µM (inactive) with UO-31.

Regarding `CC(CC(=O)N1C2CC3CCC2(CS1(=O)=O)C3(C)C)[Si](C)(C)C` (stereo not drawn), the GI50 in the experiment with 786-0, with DU-145, in the experiment on HCC 2998, in the experiment with HL-60, in the experiment with IGROV-1 and in the experiment with LOX IMVI was > 100 µM (inactive) throughout. Besides, the GI50 in the experiment with M14, in the experiment on MDA-MB-435, in the experiment with MOLT-4, in the experiment with Malme-3M, in the experiment on NCI-H23 and in the experiment with NCI/ADR-RES was > 100 µM (inactive) throughout. Also, the GI50 in the experiment on RPMI-8226, with SF-295, in the experiment on T47D, in the experiment on U-251 and in the experiment on UO-31 was > 100 µM (inactive) each time.

As to `CCN(CC)CCC(=O)/C=C/c1ccc(Cl)c(Cl)c1`, the GI50 in the experiment with 786-0 was 3.31 µM (inactive); in the experiment on DU-145 it was > 10 µM (inactive); in the experiment with HCC 2998, 3.36 µM (inactive); with HL-60 it was 0.302 µM (active); with M14, 3.52 µM (inactive); in the experiment with MDA-MB-435, 3.21 µM (inactive). Moreover, the GI50 in the experiment with MOLT-4 is 3.01 µM (inactive); in the experiment with Malme-3M it was 3.77 µM (inactive); with NCI-H23, > 10 µM (inactive); in the experiment on NCI/ADR-RES it was 1.99 µM (inactive); with OVCAR-5, 7.93 µM (inactive); in the experiment on RPMI-8226, 0.127 µM (active). Besides, the results for the GI50 with SF-295, with T47D and in the experiment with U-251 were > 10 µM (inactive), 2.33 µM (inactive) and 4.76 µM (inactive), respectively.

As for `COc1cc(/C=C/C(=O)O)ccc1O` [FERULATE], the GI50 with 786-0, in the experiment with DU-145, in the experiment on HCC 2998, in the experiment with HL-60, in the experiment with IGROV-1 and in the experiment on LOX IMVI was > 100 µM (inactive) throughout. Moreover, the GI50 in the experiment with M14, in the experiment on MDA-MB-435, with MOLT-4, in the experiment on Malme-3M, with NCI-H23 and with NCI/ADR-RES was > 100 µM (inactive) each time. Also, the GI50 in the experiment with OVCAR-5, in the experiment with RPMI-8226, in the experiment on SF-295, in the experiment with T47D, with U-251 and with UO-31 was > 100 µM (inactive) in each case.

Consider `CC1(O)CCC(C(C)(C)O)CC1` (stereo not drawn) [TERPIN], for which the GI50 was > 100 µM (inactive) in the experiment on 786-0; > 100 µM (inactive) with DU-145; > 100 µM (inactive) with HCC 2998; > 100 µM (inactive) with HL-60; 16.1 µM (inactive) in the experiment with IGROV-1; > 100 µM (inactive) in the experiment on LOX IMVI. For the same compound, the GI50 with M14, in the experiment with MDA-MB-435, in the experiment on MOLT-4, with NCI-H23, in the experiment on NCI/ADR-RES and with OVCAR-5 was > 100 µM (inactive) in each case. For the same compound, the GI50 in the experiment with RPMI-8226, in the experiment on SF-295, with T47D, in the experiment with U-251, in the experiment with UACC-62 and with UO-31 was > 100 µM (inactive) each time.
